Patent US9274101B2 (BIOLOG, Inc., priority 2001, dated 2016)

Key:
Format in all cases: cell-based, human
HL-60 cells [1] = experiment: HL-60 responses to selected compounds at a range of concentrations; conditions: for activity at 30 µM / activity at 100 µM / activity at 330 µM / activity at 1000 µM / activity at 3300 µM / activity at 10000 µM / activity at 15000 µM / activity at 20000 µM: Homo sapiens, HL-60, read-out: HL-60 Cell Responses to Selected Compounds from PM1 and PM2; for activity at 30 µM: Conc. 0.03 mM; for activity at 100 µM: Conc. 0.10 mM; for activity at 330 µM: Conc. 0.33 mM; for activity at 1000 µM: Conc. 1.00 mM; for activity at 3300 µM: Conc. 3.3 mM; for activity at 10000 µM: Conc. 10 mM; for activity at 15000 µM: Conc. 15 mM; for activity at 20000 µM: Conc. 20 mM
Procedure, shortened: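 Washed HL-60 cells (5×10^4/well) in DME-R were exposed to test energy sources at final 0.033 to 20 mM for 24 h at 37 °C, then MTS/MPMS was added for a further 24 h. OD490 (ref 650 nm) was corrected with cell-free control plates and normalized to % of no-energy-source control.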

[2] = system: Undifferentiated HL-60 cells; experiment: Energy use by undifferentiated HL-60 cells; conditions: for activity at 30 µM / activity at 100 µM / activity at 330 µM / activity at 1000 µM / activity at 3300 µM / activity at 10000 µM / activity at 15000 µM / activity at 20000 µM: Homo sapiens, HL-60, 24 h, read-out: Energy Use by Undifferentiated HL-60 Cells; for activity at 30 µM: Conc. 0.03 mM; for activity at 100 µM: Conc. 0.10 mM; for activity at 330 µM: Conc. 0.33 mM; for activity at 1000 µM: Conc. 1.00 mM; for activity at 3300 µM: Conc. 3.3 mM; for activity at 10000 µM: Conc. 10 mM; for activity at 15000 µM: Conc. 15 mM; for activity at 20000 µM: Conc. 20 mM
HL-60 cells [3] = experiment: Effect of 10 mM citric acid on HL-60 energy utilization; conditions: for Effect of 10 mM Citric Acid on HL-60 Energy Utilization: negative control without energy sources and without citric acid
HepG2 cells = HepG2 cells on flat bottom plastic wells, energy sources at a range of concentrations; conditions: for activity at 30 µM / activity at 100 µM / activity at 330 µM / activity at 1000 µM / activity at 3300 µM / activity at 10000 µM / activity at 15000 µM / activity at 20000 µM: Homo sapiens, HepG2, 72 h, read-out: HepG2 Cells Responses After 72 hours in Culture and a 4 hour Color Development Period; for activity at 30 µM: Conc. 0.03 mM; for activity at 100 µM: Conc. 0.10 mM; for activity at 330 µM: Conc. 0.33 mM; for activity at 1000 µM: Conc. 1.00 mM; for activity at 3300 µM: Conc. 3.3 mM; for activity at 10000 µM: Conc. 10 mM; for activity at 15000 µM: Conc. 15 mM; for activity at 20000 µM: Conc. 20 mM
Procedure, shortened: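 HepG2 cells plated overnight at 4×10^4 cells/cm^2 in glucose-, glutamine- and pyruvate-free DME with 10% HI FBS, then exposed to each energy source at 0.033 to 20 mM final for 48 to 72 h at 37° C, 5% CO2. MTS/PMS colour read at 490 nm (reference 650 nm) after 4-24 h; cell-free plate OD subtracted, data normalised to % negative control (water, no energy source).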

[4] = energy source 0.03 mM with 10 mM citric acid
[5] = energy source 0.10 mM with 10 mM citric acid
[6] = energy source 0.33 mM with 10 mM citric acid
[7] = energy source 1.00 mM with 10 mM citric acid
[8] = energy source 3.3 mM with 10 mM citric acid
[9] = energy source 10 mM with 10 mM citric acid
[10] = energy source 15 mM with 10 mM citric acid
[11] = energy source 20 mM with 10 mM citric acid

| Structure (SMILES) | activity at 30 µM (HL-60 cells [1]) | activity at 100 µM (HL-60 cells [1]) | activity at 330 µM (HL-60 cells [1]) | activity at 1000 µM (HL-60 cells [1]) | activity at 3300 µM (HL-60 cells [1]) | activity at 10000 µM (HL-60 cells [1]) | activity at 15000 µM (HL-60 cells [1]) | activity at 20000 µM (HL-60 cells [1]) | activity at 30 µM [2] | activity at 100 µM [2] | activity at 330 µM [2] | activity at 1000 µM [2] | activity at 3300 µM [2] | activity at 10000 µM [2] | activity at 15000 µM [2] | activity at 20000 µM [2] | Effect of 10 mM Citric Acid on HL-60 Energy Utilization (HL-60 cells [3]; [4]) | Effect of 10 mM Citric Acid on HL-60 Energy Utilization (HL-60 cells [3]; [5]) | Effect of 10 mM Citric Acid on HL-60 Energy Utilization (HL-60 cells [3]; [6]) | Effect of 10 mM Citric Acid on HL-60 Energy Utilization (HL-60 cells [3]; [7]) | other results |
| --- | --- | --- | --- | --- | --- | --- | --- | --- | --- | --- | --- | --- | --- | --- | --- | --- | --- | --- | --- | --- | --- |
| NC(=O)CC[C@H](N)C(=O)O [L-glutamine] | 147% | 161% | 162% | 168% | 161% | 151% | 127% | 92% | 167% | 214% | 227% | 237% | 249% | 220% | 198% | 172% | 15.0 % of negative control | 57.8 % of negative control | 57.1 % of negative control | 108.0 % of negative control | response in words (HL-60 cells [1]; 0.033 to 20 mM): strongly utilized, even at very low concentrations; energy source use in words ([2]; undifferentiated HL-60 cells): responsive to high concentrations; cell activity in the presence of citric acid, in words (HL-60 cells [3]; 10 mM citric acid): able to restore cell activity to a level equal or greater than the negative control; Effect of 10 mM Citric Acid on HL-60 Energy Utilization (HL-60 cells [3]; [8]): 135.0 % of negative control; Effect of 10 mM Citric Acid on HL-60 Energy Utilization (HL-60 cells [3]; [9]): 125.3 % of negative control; Effect of 10 mM Citric Acid on HL-60 Energy Utilization (HL-60 cells [3]; [10]): 107.3 % of negative control; Effect of 10 mM Citric Acid on HL-60 Energy Utilization (HL-60 cells [3]; [11]): 86.7 % of negative control; response in words (HepG2 cells; 0.033 to 20 mM, 72 hour culture): dose dependent response in the 72 hour culture up to 3.3 mM; activity at 30 µM (HepG2 cells): 103%; activity at 100 µM (HepG2 cells): 114%; activity at 330 µM (HepG2 cells): 205%; activity at 1000 µM (HepG2 cells): 218%; activity at 3300 µM (HepG2 cells): 260%; activity at 10000 µM (HepG2 cells): 224%; activity at 15000 µM (HepG2 cells): 146%; activity at 20000 µM (HepG2 cells): 111% |
| CC(C)[C@H](N)C(=O)O [L-valine] | 117% | 137% | 134% | 135% | 133% | 125% | 122% | 112% | 89.6% | 93.2% | 83.8% | 78.6% | 86.4% | 89% | 97.7% | 104% | 9.3 % of negative control | 13.4 % of negative control | 12.4 % of negative control | 12.7 % of negative control | Effect of 10 mM Citric Acid on HL-60 Energy Utilization (HL-60 cells [3]; [8]): 20.8 % of negative control; Effect of 10 mM Citric Acid on HL-60 Energy Utilization (HL-60 cells [3]; [9]): 32.2 % of negative control; Effect of 10 mM Citric Acid on HL-60 Energy Utilization (HL-60 cells [3]; [10]): 42.3 % of negative control; Effect of 10 mM Citric Acid on HL-60 Energy Utilization (HL-60 cells [3]; [11]): 64.5 % of negative control; activity at 30 µM (HepG2 cells): 119%; activity at 100 µM (HepG2 cells): 149%; activity at 330 µM (HepG2 cells): 170%; activity at 1000 µM (HepG2 cells): 125%; activity at 3300 µM (HepG2 cells): 176%; activity at 10000 µM (HepG2 cells): 132%; activity at 15000 µM (HepG2 cells): 108%; activity at 20000 µM (HepG2 cells): 87.6% |
| Cc1cn([C@H]2C[C@H](O)[C@@H](CO)O2)c(=O)[nH]c1=O [Thymidine] | 121% | 125% | 128% | 134% | 129% | 106% | 91.5% | 68.5% | 84.1% | 106% | 101% | 90.9% | 111% | 80.3% | 81.3% | 52.3% | 5.2 % of negative control | 18.9 % of negative control | 12.4 % of negative control | 22.1 % of negative control | Effect of 10 mM Citric Acid on HL-60 Energy Utilization (HL-60 cells [3]; [8]): 27.9 % of negative control; Effect of 10 mM Citric Acid on HL-60 Energy Utilization (HL-60 cells [3]; [9]): 31.0 % of negative control; Effect of 10 mM Citric Acid on HL-60 Energy Utilization (HL-60 cells [3]; [10]): 20.9 % of negative control; Effect of 10 mM Citric Acid on HL-60 Energy Utilization (HL-60 cells [3]; [11]): 64.8 % of negative control; activity at 30 µM (HepG2 cells): 115%; activity at 100 µM (HepG2 cells): 158%; activity at 330 µM (HepG2 cells): 180%; activity at 1000 µM (HepG2 cells): 150%; activity at 3300 µM (HepG2 cells): 135%; activity at 10000 µM (HepG2 cells): 114%; activity at 15000 µM (HepG2 cells): 101%; activity at 20000 µM (HepG2 cells): 134% |
